Blank lines part the entries; values can stand above or below the compound they belong to.
What was measured:
[1] = biological target: T1, Sodium/glucose cotransporter 2 (Homo sapiens, UniProt P31639); test: Inhibition of human kidney SGLT2 assessed as renal glucose reabsorption
T1 sequence (P31639 whole entry): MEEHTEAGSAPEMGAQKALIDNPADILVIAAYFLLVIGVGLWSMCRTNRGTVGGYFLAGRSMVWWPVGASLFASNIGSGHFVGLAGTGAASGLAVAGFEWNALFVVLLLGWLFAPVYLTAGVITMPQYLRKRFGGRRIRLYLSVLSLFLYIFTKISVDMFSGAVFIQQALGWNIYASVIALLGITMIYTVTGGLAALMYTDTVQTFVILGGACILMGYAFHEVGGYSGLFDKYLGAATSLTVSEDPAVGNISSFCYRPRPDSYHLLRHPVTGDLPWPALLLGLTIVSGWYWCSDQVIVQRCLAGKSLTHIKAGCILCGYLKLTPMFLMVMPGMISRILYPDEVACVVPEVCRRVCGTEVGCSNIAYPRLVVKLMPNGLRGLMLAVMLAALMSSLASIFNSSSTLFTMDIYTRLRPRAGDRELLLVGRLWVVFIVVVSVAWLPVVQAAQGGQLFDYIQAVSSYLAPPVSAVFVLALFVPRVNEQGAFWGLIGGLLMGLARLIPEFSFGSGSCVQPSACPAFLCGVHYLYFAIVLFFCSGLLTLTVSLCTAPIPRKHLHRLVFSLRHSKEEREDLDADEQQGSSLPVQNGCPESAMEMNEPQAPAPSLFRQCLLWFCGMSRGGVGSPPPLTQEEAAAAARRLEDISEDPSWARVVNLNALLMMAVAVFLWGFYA

[2] = system: Rattus norvegicus; test: Antidiabetic activity in normal Sprague-Dawley rat assessed as urinary glucose excretion at 300 mg/kg, po after 24 hrs; type: functional, Urine
[3] = system: Homo sapiens; test: Antidiabetic activity in po dosed type 2 diabetes mellitus patient assessed as reduction in HbA1C level in intestine; type: functional; design: scale not given: the % may be the effect or the level left
[4] = species on record: Homo sapiens; test: Selectivity for human SGLT2 over human SGLT1
[5] = system: Homo sapiens; test: Antidiabetic activity in po dosed type 2 diabetes mellitus patient assessed as reduction in HbA1C level […]; type: functional; design: scale not given: the % may be the effect or the level left
[6] = system: Rattus norvegicus; test: Antidiabetic activity in normal Sprague-Dawley rat assessed as urinary glucose excretion at 1 mg/kg, po after 24 hrs; type: functional, Urine
[7] = Half life in normal human at 10 to 100 mg/day, po administered as single ascending dose; settings: in vivo
[8] = Clearance in normal human at 10 to 100 mg/day, po administered as single ascending dose; settings: in vivo
[9] = clinical; settings: human, in vivo, po
[10] = system: Homo sapiens; test: Antidiabetic activity in type 2 diabetes mellitus patient assessed as reduction in HbA1C level at 750 mg, po daily measured after 12 weeks; type: functional; design: scale not given: the % may be the effect or the level left
[11] = species on record: Homo sapiens; test: Antidiabetic activity in type 2 diabetes mellitus patient assessed as reduction body weight; type: functional; design: scale not given: the % may be the effect or the level left
[12] = system: Rattus norvegicus; test: Antidiabetic activity in normal Sprague-Dawley rat assessed as urinary glucose excretion at 10 mg/kg, po after 24 hrs; type: functional, Urine
[13] = system: Rattus norvegicus; test: Antidiabetic activity in normal Sprague-Dawley rat assessed as urinary glucose excretion at 30 mg/kg, po after 24 hrs; type: functional, Urine
[14] = system: Rattus norvegicus; test: Antidiabetic activity in normal Sprague-Dawley rat assessed as urinary glucose excretion at 100 mg/kg, po after 24 hrs; type: functional, Urine
[15] = system: Homo sapiens; test: Antidiabetic activity in po dosed type 2 diabetes mellitus patient assessed as reduction in HbA1C level in liver; type: functional; design: scale not given: the % may be the effect or the level left
[16] = system: Homo sapiens; test: Antidiabetic activity in po dosed type 2 diabetes mellitus patient assessed as reduction in HbA1C level in adipose tissue; type: functional; design: scale not given: the % may be the effect or the level left
[17] = system: Homo sapiens; test: Antidiabetic activity in po dosed type 2 diabetes mellitus patient assessed as reduction in HbA1C level in skeletal muscle; type: functional, Muscle tissue; design: scale not given: the % may be the effect or the level left
[18] = system: Rattus norvegicus; test: Antidiabetic activity in normal Sprague-Dawley rat assessed as urinary glucose excretion at 3 mg/kg, po after 24 hrs; type: functional, Urine
[19] = system: Homo sapiens; test: Antidiabetic activity in normal human assessed as plasma glucose level at 500 mg, po after 4 hrs by OGTT; type: functional
[20] = system: Homo sapiens; test: Antidiabetic activity in over-weight subject assessed as reduction of body weight at […], po tid for 2 weeks; type: functional
[21] = system: Homo sapiens; test: Antidiabetic activity in normal human assessed as reduction urinary glucose excretion at 200 mg, po after 24 hrs; type: functional, Urine
[22] = system: Homo sapiens; test: Antidiabetic activity in normal human assessed as reduction urinary glucose excretion at 500 mg, po after 24 hrs; type: functional, Urine
[23] = system: Homo sapiens; test: Antidiabetic activity in po dosed type 2 diabetes mellitus patient assessed as reduction in HbA1C level in small intestine; type: functional; design: scale not given: the % may be the effect or the level left

EC50 [1]: > 2 nM
Structure (SMILES): CCc1ccc(Cc2ccccc2[C@@H]2O[C@H](CO)[C@@H](O)[C@H](O)[C@H]2O)cc1

Structure (SMILES): O=C(CCc1ccc(O)cc1)c1c(O)cc(O)cc1O[C@@H]1O[C@H](CO)[C@@H](O)[C@H](O)[C@H]1O [PHLORIZIN]
Activity [2]: 80 mg

Structure (SMILES): N[C@@H](CC(=O)N1CCn2c(nnc2C(F)(F)F)C1)Cc1cc(F)c(F)cc1F [SITAGLIPTIN]
Activity [3]: 0.6%

EC50 [1]: 9 nM
Ki [1]: 2.4 nM
Ratio [4]: 296
Structure (SMILES): COc1ccc(Cc2ccccc2O[C@@H]2O[C@H](CO)[C@@H](O)[C@H](O)[C@H]2O)cc1 [SERGLIFLOZIN A]

Structure (SMILES): CCOc1cc(CC(=O)N[C@@H](CC(C)C)c2ccccc2N2CCCCC2)ccc1C(=O)O [REPAGLINIDE]
Activity [5]: 1%

half-life [7]: 15 h
CL/F [8]: 6 mL/min
Tmax [9]: 1 h
Structure (SMILES): CCOc1ccc(Cc2cc([C@@H]3O[C@H](CO)[C@@H](O)[C@H](O)[C@H]3O)ccc2Cl)cc1 [DAPAGLIFLOZIN]
Activity [6]: 1100 mg

EC50 [1]: 14 nM
Ki [1]: 12.4 nM
Ratio [4]: 365
Structure (SMILES): Cc1c(Cc2ccc(OC(C)C)cc2)c(O[C@@H]2O[C@H](CO)[C@@H](O)[C@H](O)[C@H]2O)nn1C(C)C [REMOGLIFLOZIN]

Structure (SMILES): C/N=C(\N)N(C)C(=N)N.Cl [METFORMIN XR]
Activity [10]: 0.73%
Activity [11]: 2.3%

Structure (SMILES): COC(=O)OC[C@H]1O[C@@H](Oc2cc(C)cc(O)c2C(=O)CCc2ccc3occc3c2)[C@H](O)[C@@H](O)[C@@H]1O
Activity [12]: 50 mg
Activity [13]: 450 mg
Activity [14]: 1000 mg
Activity [2]: 2000 mg

IC50 [1]: 50 nM
Structure (SMILES): Cc1cc(O)c(C(=O)CCc2ccc3occc3c2)c(O[C@@H]2O[C@H](CO)[C@@H](O)[C@H](O)[C@H]2O)c1

EC50 [1]: 500 nM
Structure (SMILES): CCNC(=O)c1c(O)c(Cc2ccc(OC)cc2)cc([C@@H]2O[C@H](CO)[C@@H](O)[C@H](O)[C@H]2O)c1O

Structure (SMILES): CN(CCOc1ccc(CC2SC(=O)NC2=O)cc1)c1ccccn1 (stereo unspecified) [ROSIGLITAZONE]
Activity [15]: 0.5%
Activity [16]: 0.5%
Activity [17]: 0.5%

Structure (SMILES): CCOC(=O)OC[C@H]1O[C@@H](Oc2ccccc2Cc2ccc(OC)cc2)[C@H](O)[C@@H](O)[C@@H]1O [SERGLIFLOZIN ETABONATE]
Activity [18]: 80 mg
Activity [12]: 180 mg
Activity [13]: 400 mg
Activity [19]: 7 mmol·h/L
Activity [20]: 1.5 kg
Activity [21]: 12 g
Activity [22]: 17 g

Structure (SMILES): CN(C)C(=N)NC(=N)N [METFORMIN]
Activity [15]: 1%
Activity [3]: 1%
Activity [5]: 1%

Structure (SMILES): CCOC(=O)OC[C@H]1O[C@@H](Oc2nn(C(C)C)c(C)c2Cc2ccc(OC(C)C)cc2)[C@H](O)[C@@H](O)[C@@H]1O [REMOGLIFLOZIN ETABONATE]
Activity [6]: 36 mg
Activity [18]: 95 mg
Activity [12]: 320 mg

Structure (SMILES): C[C@H]1O[C@H](O[C@H]2[C@H](O)[C@@H](O)[C@@H](O[C@H]3[C@H](O)[C@@H](O)C(O)O[C@@H]3CO)O[C@@H]2CO)[C@H](O)[C@@H](O)[C@@H]1N[C@H]1C=C(CO)[C@@H](O)[C@H](O)[C@H]1O (stereo partly specified) [ACARBOSE]
Activity [5]: 0.5%
Activity [23]: 0.5%

Structure (SMILES): CCC1=C(C)CN(C(=O)NCCc2ccc(S(=O)(=O)NC(=O)N[C@H]3CC[C@H](C)CC3)cc2)C1=O [GLIMEPIRIDE]
Activity [5]: 1%

Reference: ChEMBL document CHEMBL1153320, “Development of the renal glucose reabsorption inhibitors: a new mechanism for the pharmacotherapy of diabetes mellitus type 2” (J Med Chem, 2009)
